IC50 data for two compounds are collected here from patent US20240360133A1, “FUSED TRICYCLIC COMPOUND, PREPARATION METHOD THEREFOR AND APPLICATION THEREOF IN MEDICINE” (Jiangsu Hengrui Pharmaceuticals Co., Ltd., priority 2020, published 2024).

One assay deals with T1, human TLR8 (Homo sapiens, UniProt Q9NR97).
T1 construct: host or cells: HEK-Blue hTLR8 (HEK293)
T1 sequence (Q9NR97 27-1041): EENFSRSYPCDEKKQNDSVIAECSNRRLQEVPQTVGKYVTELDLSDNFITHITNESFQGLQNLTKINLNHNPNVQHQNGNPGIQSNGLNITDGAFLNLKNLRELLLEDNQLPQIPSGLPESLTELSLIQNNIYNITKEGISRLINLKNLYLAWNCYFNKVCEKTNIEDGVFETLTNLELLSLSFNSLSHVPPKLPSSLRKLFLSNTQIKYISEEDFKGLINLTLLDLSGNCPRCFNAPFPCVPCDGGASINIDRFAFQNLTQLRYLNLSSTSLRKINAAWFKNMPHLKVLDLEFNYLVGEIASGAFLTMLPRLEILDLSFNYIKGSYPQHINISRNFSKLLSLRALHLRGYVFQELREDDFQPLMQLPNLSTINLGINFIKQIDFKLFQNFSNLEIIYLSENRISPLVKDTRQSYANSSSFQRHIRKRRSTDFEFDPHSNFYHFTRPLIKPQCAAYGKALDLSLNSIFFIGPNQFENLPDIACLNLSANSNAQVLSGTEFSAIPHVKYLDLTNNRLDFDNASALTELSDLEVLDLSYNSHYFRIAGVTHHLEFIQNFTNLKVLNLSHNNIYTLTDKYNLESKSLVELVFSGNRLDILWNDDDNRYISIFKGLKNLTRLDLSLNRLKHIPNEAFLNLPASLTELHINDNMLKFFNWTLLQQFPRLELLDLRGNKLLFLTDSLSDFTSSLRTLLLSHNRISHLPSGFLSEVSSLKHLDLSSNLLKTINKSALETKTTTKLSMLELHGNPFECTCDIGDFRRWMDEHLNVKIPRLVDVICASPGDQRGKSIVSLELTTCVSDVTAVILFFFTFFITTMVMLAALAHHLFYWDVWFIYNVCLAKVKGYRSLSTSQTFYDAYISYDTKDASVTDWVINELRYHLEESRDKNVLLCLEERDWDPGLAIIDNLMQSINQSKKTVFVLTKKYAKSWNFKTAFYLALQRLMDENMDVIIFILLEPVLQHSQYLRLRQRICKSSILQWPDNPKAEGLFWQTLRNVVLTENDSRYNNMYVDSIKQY
Put plainly: Inhibitory effect on human TLR8 pathway (HEK-Blue hTLR8 SEAP reporter). As to conditions: HEK-Blue hTLR8 cells, 6 μM resiquimod, 20 h, SEAP OD620. The class given is cell-based. As to the method:
(§1) • 1. HEK-Blue™ hTLR8 cell (Invivogen) • 2. Resiquimod (R848, Invivogen) • 3. Alkaline phosphatase detection medium (Quanti-Blue Detection, Invivogen) • 4. Blasticidin (Invivogen) • 5. Zeocin (Invivogen) • 6. Normocin (Invivogen) • 7. DMEM/HIGH Glucose (GE Healthcare) • 8. Fetal bovine serum (FBS, Gibco) • 9. Phosphate-buffered saline (Shanghai BasalMedia Technologies Co., Ltd.) • 10. Sterile purified water (made in-house by Shanghai Hengrui) • 11. 15 mL centrifuge tube (Corning) • 12. 96-well formulating plate (Corning) • 13. 96-well flat-bottom cell culture plate (Corning) • 14. Constant-temperature cell incubator (Thermo scientific) • 15. Constant-temperature incubator (Shanghai Yiheng Scientific Instruments Co., Ltd.) • 16. PHERAstar FS microplate reader (BMG Labtech)
(§2) HEK-Blue™ hTLR8 cells were purchased from Invivogen. These cells are HEK293 cells transfected with the human Toll-like receptor 8 (TLR8) gene and the secreted alkaline phosphatase reporter gene (SEAP). The alkaline phosphatase reporter gene (SEAP) is under the regulation of the IFN—P minimal promoter comprising 5 NF-kB and AP-1 binding sites. Upon activation of TLR8 with an agonist, SEAP secretion is induced via downstream NF-kB and AP-1. After addition of an antagonist compound, the pathway described above is inhibited, and SEAP secretion is reduced. The activity of the compounds for the TLR8 pathway was evaluated by measuring OD620 through the SEAP substrate.
(§3) 20 mM test compounds dissolved in 100% DMSO were serially diluted with 100% DMSO to 2000, 400, 80, 16, 3.2, 0.64, 0.128, 0.0256 μM, with blank wells containing 100% DMSO. The compounds and 100% DMSO were then 20-fold diluted in DMEM/HIGH glucose media containing 10% inactivated FBS (complete media, the same applies below). Resiquimod was diluted to 60 μM with sterile water. The 60 μM resiquimod dilution in sterile water was added to a 96-well cell culture plate at 20 μL/well. The above compounds diluted in complete media and 100% DMSO were then added at 20 μL/well to wells containing resiquimod, 20 μL of sterile water and 20 μL of 100% DMSO diluted in the complete medium were added to negative control wells.
(§4) HEK-Blue™ hTLR8 cells were cultured in a DMEM/HIGH glucose medium containing 10% inactivated FBS, 100 μg/mL Normocin, 10 μg/mL blasticidin, and 100 μg/mL Zeocin. Cells that were in a good state of growth and had grown to 70%-8% were collected. The growth medium was discarded, 5-10 mL of PBS pre-heated at 37° C. was added to wash the cells once, and 2-5 mL of pre-heated PBS was added. The cells were cultured at 37° C. for 1-2 min, dispersed by pipetting, transferred to a 15 mL centrifuge tube, and counted, and the cell density was adjusted to 4.8×10^5/mL with the complete medium. After density adjustment, 160 μL of the resulting cell suspension was added to the above 96-well cell culture plate to a final number of cells per well of 76,500/well. The final concentration of resiquimod was 6 μM, and the final concentrations of the test compounds were 10,000, 2000, 400, 80, 16, 3.2, 0.64, and 0.128 nM. The cells were cultured in a 37° C., 5% CO2 incubator for 20 h. Then 20 μL of the supernatant was added to 180 μL of the prepared alkaline phosphatase detection medium and incubated in the dark in a constant-temperature incubator at 37° C. for 120 min. The OD620 absorbance readings were taken on a microplate reader. The inhibition rate was calculated using the following formula: […]
Inhibition curves were plotted using Graphpad Prism software according to the concentrations of the compounds and the corresponding inhibition rates, and the concentrations of the compounds at which the inhibition rate reached 50%, i.e., IC50 values, were calculated and are shown in Table 2.

The next assay deals with T2, human TLR7 (Homo sapiens, UniProt Q9NYK1).
T2 construct: host or cells: HEK-Blue hTLR7 (HEK293)
T2 sequence (Q9NYK1 27-1049): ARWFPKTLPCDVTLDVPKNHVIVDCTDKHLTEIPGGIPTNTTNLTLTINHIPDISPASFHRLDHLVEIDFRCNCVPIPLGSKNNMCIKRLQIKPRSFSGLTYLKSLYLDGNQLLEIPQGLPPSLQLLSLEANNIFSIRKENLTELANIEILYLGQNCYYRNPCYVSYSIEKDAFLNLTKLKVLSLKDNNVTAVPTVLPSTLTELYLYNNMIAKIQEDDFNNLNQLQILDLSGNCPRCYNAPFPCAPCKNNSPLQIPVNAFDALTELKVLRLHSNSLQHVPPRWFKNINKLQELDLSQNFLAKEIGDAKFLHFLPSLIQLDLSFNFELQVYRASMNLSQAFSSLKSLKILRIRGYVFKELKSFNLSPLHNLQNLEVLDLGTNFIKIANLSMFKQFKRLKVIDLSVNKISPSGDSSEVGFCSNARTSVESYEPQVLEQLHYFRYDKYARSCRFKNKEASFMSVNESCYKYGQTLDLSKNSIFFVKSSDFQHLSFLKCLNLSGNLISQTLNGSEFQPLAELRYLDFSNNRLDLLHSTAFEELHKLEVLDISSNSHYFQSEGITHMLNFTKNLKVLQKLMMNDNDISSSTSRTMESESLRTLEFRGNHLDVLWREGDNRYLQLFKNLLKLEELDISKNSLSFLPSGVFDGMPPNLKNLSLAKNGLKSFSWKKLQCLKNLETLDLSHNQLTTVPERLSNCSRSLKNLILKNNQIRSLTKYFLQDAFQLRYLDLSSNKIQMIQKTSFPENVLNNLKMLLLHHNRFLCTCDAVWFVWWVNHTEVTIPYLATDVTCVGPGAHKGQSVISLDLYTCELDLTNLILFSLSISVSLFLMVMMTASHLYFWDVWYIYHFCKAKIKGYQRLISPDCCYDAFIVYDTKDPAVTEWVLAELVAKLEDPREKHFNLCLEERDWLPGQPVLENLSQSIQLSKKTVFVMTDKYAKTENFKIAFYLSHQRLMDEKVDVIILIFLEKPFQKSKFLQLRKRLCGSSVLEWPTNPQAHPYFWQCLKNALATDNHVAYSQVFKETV
Put plainly: Inhibitory effect on human TLR7 activation pathway (HEK-Blue hTLR7 SEAP reporter). The class given is cell-based. As to conditions: HEK-Blue hTLR7 cells, 1 μM resiquimod, 20 h, SEAP OD620. As to the method:
as §1, with “HEK-Blue™ hTLR7” for “HEK-Blue™ hTLR8”, “12. %-well” for “12. 96-well”
as §2, with “hTLR7” for “hTLR8”, “7 (TLR7)” for “8 (TLR8)”, “TLR7” for “TLR8”
as §3, with “10” for “60”
as §4, with “HEK-Blue™ hTLR7” for “HEK-Blue™ hTLR8”, “to 70%-80%” for “to 70%-8%”, “to 4.8-10′/mL” for “to 4.8×10^5/mL”, “was 1” for “was 6”, “min. Then the” for “min. The”
Inhibition curves were plotted using Graphpad Prism software according to the concentrations of the compounds and the corresponding inhibition rates, and the concentrations of the compounds at which the inhibition rate reached 50%, i.e., IC50 values, were calculated and are shown in Table 1.

Regarding `Cc1cc(-c2[nH]c3cc4c(nc3c2C2CCOCC2)CNCC4)cc(C)n1` [Example 6, 2-(2,6-Dimethylpyridin-4-yl)-3-(tetrahydro-2H-pyran-4-yl)-5,6,7,8-tetrahydro-1H-pyrrolo[3,2-b][1,7]naphthyridine], the IC50 at human TLR8 stood at 10.5 nM. Regarding `Cc1cc(-c2[nH]c3cc4c(nc3c2C(C)C)CC(NC2CCOC2)CC4)cc(C)n1` (centres unmarked) [Example 3, 2-(2,6-Dimethylpyridin-4-yl)-3-isopropyl-N-(tetrahydrofuran-3-yl)-5,6,7,8-tetrahydro-1H-pyrrolo[3,2-b]quinolin-6-amine], at human TLR7, the IC50 came out at 14.9 nM.

The IC50 is the midpoint of a concentration-inhibition curve. Low values mean higher potency, high ones lower potency.
